Experiment [1] addresses T1, Purified recombinant ADAMTS-7 (rat prodomain/human catalytic domain, SEQ ID No. 01 or 02) (Homo sapiens, UniProt Q9UKP4).
T1 construct: rat ADAMTS-7 signal peptide + prodomain (rat 1-217, Q1EHB3) (N); 2xStrep tag (C); 6xHis tag (C); made in house; host or cells: Expi293 cells
T1 sequence (Q9UKP4 237-537): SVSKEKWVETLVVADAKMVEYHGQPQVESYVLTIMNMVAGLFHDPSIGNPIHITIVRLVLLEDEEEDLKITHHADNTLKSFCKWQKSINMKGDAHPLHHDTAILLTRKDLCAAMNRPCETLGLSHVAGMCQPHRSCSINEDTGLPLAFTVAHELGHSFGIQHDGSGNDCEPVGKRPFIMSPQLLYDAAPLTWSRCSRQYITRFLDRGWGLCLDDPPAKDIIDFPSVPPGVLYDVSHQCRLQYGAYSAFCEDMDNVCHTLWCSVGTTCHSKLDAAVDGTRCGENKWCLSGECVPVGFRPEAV
Briefly: Assay for ADAMTS-7 enzymatic activity (FRET substrate cleavage). The note with it: FRET substrate SEQ ID No. 11, 120 min at 32° C.; read-out: ADAMTS7-IC50. The class given is biochemical. In short, it runs like this:
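IC50 values were fitted from percent inhibition across test-compound concentrations. Fluorescence gain (ex 485, em 520 nm) reports cleavage of a thrombospondin-1 (275-289) FRET peptide with QXL520 quencher, after 120 min at 32 °C. The enzyme, about 20 nM, was in HEPES pH 8.0 buffer with NaCl, CaCl2, ZnCl2 and Brij.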

The target in a further experiment is T2, ADAMTS4 (Homo sapiens, UniProt O75173).
T2 construct: purchased R&D 4307-AD
T2 sequence (O75173 213-685 limits assumed): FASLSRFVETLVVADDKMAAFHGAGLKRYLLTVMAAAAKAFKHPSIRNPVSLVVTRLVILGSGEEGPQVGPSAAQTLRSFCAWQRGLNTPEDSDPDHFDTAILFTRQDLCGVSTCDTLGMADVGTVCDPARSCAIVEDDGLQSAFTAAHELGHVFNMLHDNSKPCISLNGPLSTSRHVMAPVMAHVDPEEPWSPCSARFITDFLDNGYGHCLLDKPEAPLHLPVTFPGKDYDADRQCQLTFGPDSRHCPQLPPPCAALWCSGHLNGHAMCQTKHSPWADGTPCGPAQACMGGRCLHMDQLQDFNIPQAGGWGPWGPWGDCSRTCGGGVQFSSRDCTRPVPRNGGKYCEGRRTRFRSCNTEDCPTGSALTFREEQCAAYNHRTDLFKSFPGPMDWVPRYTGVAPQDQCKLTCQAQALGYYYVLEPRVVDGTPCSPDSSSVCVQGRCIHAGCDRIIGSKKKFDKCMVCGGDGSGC
Briefly: Selectivity assay for ADAMTS-7 modulators (FRET), ADAMTS4. The settings on record: 50 nM enzyme (R&D 4307-AD), 1 μM Dabcyl/Edans FRET substrate, 120 min at 32° C. It counts as biochemical. In a few lines: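 Enzyme in 50 mM Tris pH 7.5, 150 mM NaCl, 10 mM CaCl2, 0.05% Brij, preincubated with compound in DMSO; reaction started with FRET substrate. Fluorescence increase read after 120 min at 32° C; IC50 from percent inhibition versus compound concentration.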

IC50 data for 24 compounds are collected here from patent US20230027985A1, “SUBSTITUTED HYDANTOINAMIDES AS ADAMTS7 ANTAGONISTS” (Bayer Aktiengesellschaft, priority 2019, published 2023).

In general, IC50 refers to the concentration that gives 50% inhibition.

Turning to `Cc1ccc(-n2ncc(C(=O)NC[C@@]3(C4CC4)NC(=O)NC3=O)n2)cc1` [Example 13, N-{[(4R)-4-cyclopropyl-2,5-dioxoimidazolidin-4-yl]methyl}-2-(4-methylphenyl)-2H-1,2,3-triazole-4-carboxamide], the IC50 was determined as 47 nM in experiment [1] and 950 nM against ADAMTS4.
For `N#Cc1ccc(-n2ncc(C(=O)NC[C@@]3(C4CC4)NC(=O)NC3=O)n2)cc1` [Example 14, 2-(4-cyanophenyl)-N-{[(4R)-4-cyclopropyl-2,5-dioxoimidazolidin-4-yl]methyl}-2H-1,2,3-triazole-4-carboxamide] the same measures were 400 nM and 17000 nM.
Taken in the same sequence, the figures for `N#Cc1cccc(-n2ncc(C(=O)NC[C@@]3(C4CC4)NC(=O)NC3=O)n2)c1` [Example 17, 2-(3-cyanophenyl)-N-{[(4R)-4-cyclopropyl-2,5-dioxoimidazolidin-4-yl]methyl}-2H-1,2,3-triazole-4-carboxamide] were 32 nM and 600 nM.
Taken in the same sequence, the figures for `Cc1cccc(-n2ncc(C(=O)NC[C@@]3(C4CC4)NC(=O)NC3=O)n2)c1` [Example 18, N-{[(4R)-4-cyclopropyl-2,5-dioxoimidazolidin-4-yl]methyl}-2-(3-methylphenyl)-2H-1,2,3-triazole-4-carboxamide] were 170 nM and 2200 nM.
As to `COc1ccc(-n2ncc(C(=O)NC[C@@]3(C4CC4)NC(=O)NC3=O)n2)cc1` [Example 27, N-{[(4R)-4-cyclopropyl-2,5-dioxoimidazolidin-4-yl]methyl}-2-(4-methoxyphenyl)-2H-1,2,3-triazole-4-carboxamide], the results for the concentration for half-maximal inhibition (IC50) (in experiment [1]; against ADAMTS4) were 100 nM and 6000 nM, respectively.
With `CS(=O)(=O)c1ccc(-n2ncc(C(=O)NC[C@@]3(C4CC4)NC(=O)NC3=O)n2)cc1` [Example 28, N-{[(4R)-4-cyclopropyl-2,5-dioxoimidazolidin-4-yl]methyl}-2-[4-(methylsulfonyl)phenyl]-2H-1,2,3-triazole-4-carboxamide], the half-inhibitory concentration (IC50) in experiment [1] is 870 nM; on ADAMTS4, 67000 nM.
Regarding `O=C1NC(=O)[C@](CNC(=O)c2cnn(-c3ccc(F)c(Cl)c3)n2)(C2CC2)N1` [Example 29, 2-(3-chloro-4-fluorophenyl)-N-{[(4R)-4-cyclopropyl-2,5-dioxoimidazolidin-4-yl]methyl}-2H-1,2,3-triazole-4-carboxamide], the IC50 in experiment [1] was 5 nM; against ADAMTS4 it was 250 nM.
For `O=C1NC(=O)[C@](CNC(=O)c2cnn(-c3ccc(Cl)c(F)c3)n2)(C2CC2)N1` [Example 30, 2-(4-chloro-3-fluorophenyl)-N-{[(4R)-4-cyclopropyl-2,5-dioxoimidazolidin-4-yl]methyl}-2H-1,2,3-triazole-4-carboxamide] the same measures were 12 nM and 500 nM.
As for `O=C1NC(=O)[C@](CNC(=O)c2cnn(-c3ccc(F)cc3F)n2)(C2CC2)N1` [Example 31, N-{[(4R)-4-cyclopropyl-2,5-dioxoimidazolidin-4-yl]methyl}-2-(2,4-difluorophenyl)-2H-1,2,3-triazole-4-carboxamide], the half-maximal inhibitory concentration (IC50) in experiment [1] came to 41 nM; on ADAMTS4, 4250 nM.
With `O=C1NC(=O)[C@](CNC(=O)c2cnn(-c3ccc(Cl)c(Cl)c3)n2)(C2CC2)N1` [Example 32, N-{[(4R)-4-cyclopropyl-2,5-dioxoimidazolidin-4-yl]methyl}-2-(3,4-dichlorophenyl)-2H-1,2,3-triazole-4-carboxamide], the IC50 in experiment [1] is 35 nM; on ADAMTS4, 910 nM.
On to `O=C1NC(=O)[C@](CNC(=O)c2cnn(-c3ccc(Br)cc3)n2)(C2CC2)N1` [Example 33, 2-(4-bromophenyl)-N-{[(4R)-4-cyclopropyl-2,5-dioxoimidazolidin-4-yl]methyl}-2H-1,2,3-triazole-4-carboxamide], for which the values for the concentration for half-maximal inhibition (IC50) (in experiment [1]; against ADAMTS4) were 58 nM and 1400 nM, respectively.
Turning to `O=C1NC(=O)[C@](CNC(=O)c2cnn(-c3ccc(F)cc3)n2)(C2CC2)N1` [Example 34, N-{[(4R)-4-cyclopropyl-2,5-dioxoimidazolidin-4-yl]methyl}-2-(4-fluorophenyl)-2H-1,2,3-triazole-4-carboxamide], the half-maximal inhibitory concentration (IC50) in experiment [1] is 26 nM; against ADAMTS4, 1420 nM.
For `O=C1NC(=O)[C@](CNC(=O)c2cnn(-c3cccc(F)c3F)n2)(C2CC2)N1` [Example 35, N-{[(4R)-4-cyclopropyl-2,5-dioxoimidazolidin-4-yl]methyl}-2-(2,3-difluorophenyl)-2H-1,2,3-triazole-4-carboxamide] the same measures were 74 nM and 3100 nM.
Regarding `O=C1NC(=O)[C@](CNC(=O)c2cnn(-c3cc(F)ccc3F)n2)(C2CC2)N1` [Example 36, N-{[(4R)-4-cyclopropyl-2,5-dioxoimidazolidin-4-yl]methyl}-2-(2,5-difluorophenyl)-2H-1,2,3-triazole-4-carboxamide], the half-maximal inhibitory concentration (IC50) turned out to be 110 nM in experiment [1] and 5500 nM against ADAMTS4.
In the case of `O=C1NC(=O)[C@](CNC(=O)c2cnn(-c3ccccc3F)n2)(C2CC2)N1` [Example 37, N-{[(4R)-4-cyclopropyl-2,5-dioxoimidazolidin-4-yl]methyl}-2-(2-fluorophenyl)-2H-1,2,3-triazole-4-carboxamide], the half-maximal inhibitory concentration (IC50) amounted to 180 nM in experiment [1] and 7600 nM on ADAMTS4.
On to `O=C1NC(=O)C(CNC(=O)c2cnn(-c3ccccc3)n2)(c2ccccn2)N1` (stereo not drawn) [Example 38, ent-N-{[2,5-dioxo-4-(pyridin-2-yl)imidazolidin-4-yl]methyl}-2-phenyl-2H-1,2,3-triazole-4-carboxamide], for which the results for the IC50 (in experiment [1]; against ADAMTS4) were 10 nM and 2800 nM, respectively.
For `C[C@H](NC(=O)c1cnn(-c2ccccc2)n1)C1(C2CC2)NC(=O)NC1=O` (stereo partly drawn) [Example 40, ent-N-((1S)-1-(4-Cyclopropyl-2,5-dioxoimidazolidin-4-yl)ethyl)-2-phenyl-2H-1,2,3-triazole-4-carboxamide] the same measures were 980 nM and 25000 nM.
Regarding `O=C1NC(=O)[C@](CNC(=O)c2coc(-c3ccc(F)cc3)n2)(C2CC2)N1` [Example 41, N-{[(4R)-4-cyclopropyl-2,5-dioxoimidazolidin-4-yl]methyl}-2-(4-fluorophenyl)-1,3-oxazole-4-carboxamide], the half-inhibitory concentration (IC50) is 55 nM in experiment [1] and 1700 nM on ADAMTS4.
In the case of `O=C1NC(=O)[C@](CNC(=O)c2nnc(-c3ccc(F)cc3)o2)(C2CC2)N1` [Example 42, N-{[(4R)-4-cyclopropyl-2,5-dioxoimidazolidin-4-yl]methyl}-5-(4-fluorophenyl)-1,3,4-oxadiazole-2-carboxamide], the IC50 in experiment [1] is 350 nM; against ADAMTS4, 12000 nM.
Take `CC1(C)CC1C1(CNC(=O)c2cnn(-c3ccccc3)n2)NC(=O)NC1=O` (stereo not drawn) [Example 43, ent-N-{[4-(2,2-dimethylcyclopropyl)-2,5-dioxoimidazolidin-4-yl]methyl}-2-phenyl-2H-1,2,3-triazole-4-carboxamide]: the IC50 was determined as 320 nM in experiment [1] and 13000 nM against ADAMTS4.
In the case of `CC(C)(C)CC1(CNC(=O)c2cnn(-c3ccccc3)n2)NC(=O)NC1=O` (stereo not drawn) [Example 44, ent-N-{[4-(2,2-dimethylpropyl)-2,5-dioxoimidazolidin-4-yl]methyl}-2-phenyl-2H-1,2,3-triazole-4-carboxamide], the 50% inhibitory concentration (IC50) in experiment [1] was found to be 250 nM; against ADAMTS4, 5000 nM.
For `O=C1NC(=O)[C@](CNC(=O)c2cnn(-c3ccccc3)n2)(C2CC2)N1` [Example 45, N-{[(4R)-4-cyclopropyl-2,5-dioxoimidazolidin-4-yl]methyl}-2-phenyl-2H-1,2,3-triazole-4-carboxamide] the same measures were 69 nM and 1450 nM.
As for `O=C1NC(=O)[C@](CNC(=O)c2cnn(-c3ccccn3)n2)(C2CC2)N1` [Example 47, N-{[(4R)-4-cyclopropyl-2,5-dioxoimidazolidin-4-yl]methyl}-2-(pyridin-2-yl)-2H-1,2,3-triazole-4-carboxamide], the IC50 in experiment [1] came to 98 nM; against ADAMTS4 it was 7650 nM.
Regarding `O=C1NC(=O)[C@](CNC(=O)c2cnn(-c3ccccc3)c2)(C2CC2)N1` [Example 56, N-{[(4R)-4-cyclopropyl-2,5-dioxoimidazolidin-4-yl]methyl}-1-phenyl-1H-pyrazole-4-carboxamide], the values for the IC50 (in experiment [1]; against ADAMTS4) were 129 nM and 1800 nM, respectively.
